A word on the CC50: it is the concentration at which the toxic effect on the cells reaches its halfway point. Higher therefore signals lower toxicity to the cells. By MIC is commonly meant the lowest concentration that inhibits growth of the organism. A lower MIC goes with a more susceptible organism.

The values below come from ChEMBL document CHEMBL3091298, “Bis-phosphonium salts of pyridoxine: the relationship between structure and antibacterial activity” (Bioorg Med Chem, 2013).

The nature of data set [1]: Genotoxicity in uvrA-deficient Escherichia coli assessed as survival at 1 ug/ml after 6 hrs by DNA-repair test. The class given is toxicity, organism-based. The following applies: read-out: Survival.
The nature of data set [2]: Genotoxicity in uvrA-deficient Escherichia coli assessed as survival at 10 ug/ml after 6 hrs by DNA-repair test. The following applies: read-out: Survival. It counts as toxicity, organism-based.
Data set [3] is described as follows: Genotoxicity in uvrA-deficient Escherichia coli assessed as survival at 100 ug/ml after 6 hrs by DNA-repair test. The class given is toxicity, organism-based. The following applies: read-out: Survival.
A short description of data set [4]: Genotoxicity in polA-deficient Escherichia coli assessed as survival at 1 ug/ml after 6 hrs by DNA-repair test. It counts as toxicity, organism-based. The following applies: read-out: Survival.
Data set [5] is described as follows: Genotoxicity in polA-deficient Escherichia coli assessed as survival at 10 ug/ml after 6 hrs by DNA-repair test. It counts as toxicity, organism-based. The following applies: read-out: Survival.
The nature of data set [6]: Genotoxicity in polA-deficient Escherichia coli assessed as survival at 100 ug/ml after 6 hrs by DNA-repair test. The class given is toxicity, organism-based. The following applies: read-out: Survival.
Data set [7] in a line: Genotoxicity in recA-deficient Escherichia coli assessed as survival at 1 ug/ml after 6 hrs by DNA-repair test. It counts as toxicity, organism-based. The following applies: read-out: Survival.
The nature of data set [8]: Genotoxicity in recA-deficient Escherichia coli assessed as survival at 100 ug/ml after 6 hrs by DNA-repair test. The class given is toxicity, organism-based. The following applies: read-out: Survival.
Data set [9] in a line: Genotoxicity in recA-deficient Escherichia coli assessed as survival at 10 ug/ml after 6 hrs by DNA-repair test. It counts as toxicity, organism-based. The following applies: read-out: Survival.
Data set [10] has as its system Salmonella typhimurium. The data set can be described thus: Mutagenic activity in Salmonella typhimurium TA100 assessed as increase in number of revertants at 1 ug/ml by Ames test relative to solvent control. The following applies: salmonella enterica subsp. enterica serovar typhimurium. The class given is toxicity, organism-based. On the technique in general: In the Ames test, an excess of revertant colonies over the control signals mutagenicity.

The test system of data set [11] is Salmonella typhimurium. Briefly: Mutagenic activity in Salmonella typhimurium TA100 assessed as increase in number of revertants at 10 ug/ml by Ames test relative to solvent control. The following applies: salmonella enterica subsp. enterica serovar typhimurium. It counts as toxicity, organism-based.
The test system of data set [12] is HEK293. The data set can be described thus: (§1) Cytotoxicity against HEK293 cells after 72 hrs by MTT assay. It counts as cell-based. The following applies: human, hek293, 72 h. On the technique in general: Tetrazolium dyes change colour on reduction, which living cells bring about.
Data set [13] relates to Salmonella typhimurium. The data set can be described thus: Mutagenic activity in Salmonella typhimurium TA100 assessed as increase in number of revertants at 100 ug/ml by Ames test relative to solvent control. The class given is toxicity, organism-based. The following applies: salmonella enterica subsp. enterica serovar typhimurium.
The test system of data set [14] is Klebsiella pneumoniae. The data set can be described thus: Antibacterial activity against Klebsiella pneumoniae after 18 to 24 hrs. It counts as functional.
The test system of data set [15] is Proteus sp. Briefly: Antibacterial activity against Proteus sp. after 18 to 24 hrs. The class given is functional. The following applies: Proteus sp. (in: enterobacteria).
Data set [16] relates to Staphylococcus epidermidis. The data set can be described thus: Antibacterial activity against Staphylococcus epidermidis after 18 to 24 hrs. The class given is functional.
For data set [17], the system named is Staphylococcus aureus. Briefly: Antibacterial activity against Staphylococcus aureus after 18 to 24 hrs. It counts as functional.
Data set [18] can be described thus: as §1. The following applies: human, HEK293 cells. The class given is cell-based.

Regarding `Cc1nc(C[P+](c2ccccc2)(c2ccccc2)c2ccccc2)c(C[P+](c2ccccc2)(c2ccccc2)c2ccccc2)c2c1OC(C)(C)OC2.[Cl-].[Cl-]`, the viability at 6 h, 1 ug/ml in data set [1] was 103%; in [4] it was 114%; in [7], 88.8%. Also, the figures for the viability at 6 h, 10 ug/ml in [2], in [5] and in [9] were 114%, 112% and 79.3%, respectively. The viability at 6 h, 100 ug/ml stood at 68.9% in [3], 59.4% in [6] and 70.1% in [8]. Further, the Ratio in [10] came to 0.76; in data set [11], 0.88; in [13] it was 0.85. This compound also showed a CC50 in [12] of 72 µg/mL. In addition, the MIC in data set [14] was greater than 1000 µg/mL; in [15], greater than 1000 µg/mL; in data set [16], 5 µg/mL; in data set [17], 5 µg/mL.

`Cc1nc(C[P+](c2ccccc2)(c2ccccc2)c2ccccc2)c(C[P+](c2ccccc2)(c2ccccc2)c2ccccc2)c2c1OC(C)(C)OC2.[Br-].[Br-]` came in with a cytotoxic concentration (CC50) in [12] of 27.5 µg/mL. Also, the MIC in data set [14] was greater than 1000 µg/mL; in data set [15] it was greater than 1000 µg/mL; in [16], 2.5 µg/mL; in data set [17], 1.25 µg/mL.

Consider `CCCC1OCc2c(C[P+](c3ccccc3)(c3ccccc3)c3ccccc3)c(C[P+](c3ccccc3)(c3ccccc3)c3ccccc3)nc(C)c2O1.[Cl-].[Cl-]` (centres undefined), for which the viability at 6 h, 1 ug/ml in data set [1] is 113%; in [4], 110%; in data set [7], 87.8%. Besides, the viability at 6 h, 10 ug/ml in [2] stood at 116%; in data set [5], 108%; in [9] it was 83.1%. For the same compound, the viability at 6 h, 100 ug/ml in data set [3] was determined as 64.4%; in data set [6] it was 57.7%; in data set [8] it was 80.4%. The Ratio is listed as 0.91 in data set [10], 1.12 in data set [11] and 1.08 in [13]. The compound also showed a CC50 at 72 h in [18] of 3 µg/mL. Further, the MIC in data set [14] was greater than 1000 µg/mL; in data set [15] it was greater than 1000 µg/mL; in [16], 1 µg/mL; in data set [17], 1 µg/mL.
